Data as given in ChEMBL document CHEMBL1201862, “PubChem BioAssay data set” (2004).
Activity calls are given as the source filed them. Cut-off read from the data, not from the text of the source, for most assays here: actives have a measured EC50 and inactives only a lower limit.

What was measured:
[1] = molecular target: T1, DNA repair protein RAD52 homolog (Homo sapiens, UniProt P43351); format: functional, biochemical
T1 sequence (P43351 whole entry): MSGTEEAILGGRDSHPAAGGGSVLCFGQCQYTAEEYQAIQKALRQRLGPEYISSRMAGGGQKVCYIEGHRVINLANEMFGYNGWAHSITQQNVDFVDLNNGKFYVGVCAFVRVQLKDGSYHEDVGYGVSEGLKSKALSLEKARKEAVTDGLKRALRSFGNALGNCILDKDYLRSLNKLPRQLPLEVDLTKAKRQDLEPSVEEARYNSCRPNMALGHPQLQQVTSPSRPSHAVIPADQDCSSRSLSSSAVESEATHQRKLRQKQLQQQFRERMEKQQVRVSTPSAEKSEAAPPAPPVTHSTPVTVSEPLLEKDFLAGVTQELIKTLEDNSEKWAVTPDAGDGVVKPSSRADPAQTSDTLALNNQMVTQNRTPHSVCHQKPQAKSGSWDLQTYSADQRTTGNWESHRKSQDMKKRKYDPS

[2] = Luminescence Cell-Based Dose Response HTS to Identify Activators of Luciferase Translation or Activity in H4 […] Cells. [Related pubchem assays: 1829 (Project Summary), 1814 (Primary HTS)]; format: functional
H4 = assay: Luminescence Cell-Based Dose Response HTS to Identify Activators of 5'UTR Stem-Loop Driven Prion Protein mRNA Translation in H4 Neuroglioblastoma Cells. [Related pubchem assays: 1829 (Project Summary), 1814 (Primary HTS)]; format: functional; details: Homo sapiens
[3] = Luminescence Cell-Based Dose Confirmation HTS to Identify Activators of 5'UTR Stem-Loop Driven Alpha-Synuclein mRNA Translation in H4 Neuroglioblastoma Cells. [Related pubchem assays: 1829 (Project Summary), 1814 (Primary HTS)]; format: functional
[4] = molecular target: Luciferin 4-monooxygenase (Photinus pyralis, UniProt P08659); assay: inhibition of purified Photinus pyralis luciferase – biochemical, luminescence, dose response (AID 1891)
[5] = Luminescence Cell-Based Dose Confirmation HTS to Identify Inhibitors of Platelet Dense Granule Release. [Related pubchem assays: 1663 (Primary HTS), 1678 (Summary of Project)]; format: functional
Cytochrome P450 2C9 = Cytochrome P450 2C9 (Homo sapiens, UniProt P11712)
H9c2 = assay: cells; format: functional, cell-based; details: Rattus norvegicus, H9c2, Myocardium;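 note: confirmatory concentration-response retest of ultra-high-throughput screening hits for modulation of myocardial damage; cell death induced by hydrogen peroxide oxidative stress; compound pretreatment for 60 min then peroxide exposure for 2 h; potency is for protecting the cells against peroxide damage rather than for killing them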
[6] = molecular target: T2, Ubiquitin-conjugating enzyme E2 N (Homo sapiens, UniProt P61088); format: functional;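 note: Dose-response confirmation in a TR-FRET assay detecting UBC13-driven polyubiquitin chain formation, inhibition measured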
T2 sequence (P61088 whole entry): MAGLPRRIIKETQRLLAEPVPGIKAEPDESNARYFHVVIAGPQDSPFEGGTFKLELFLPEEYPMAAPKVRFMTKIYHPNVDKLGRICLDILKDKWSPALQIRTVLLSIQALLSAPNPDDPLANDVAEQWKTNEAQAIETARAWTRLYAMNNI

[7] = molecular target: T3, RNA-binding protein pos-1 (Caenorhabditis elegans, UniProt G5EF15); assay: disruptors of C. elegans POS-1 RNA interaction – biochemical, fluorescence polarization, dose response (AID 1964);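 note: purified POS-1 fused to maltose binding protein made in E. coli; potency of compounds blocking POS-1 binding to fluorescent RNA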
T3 sequence (G5EF15 whole entry): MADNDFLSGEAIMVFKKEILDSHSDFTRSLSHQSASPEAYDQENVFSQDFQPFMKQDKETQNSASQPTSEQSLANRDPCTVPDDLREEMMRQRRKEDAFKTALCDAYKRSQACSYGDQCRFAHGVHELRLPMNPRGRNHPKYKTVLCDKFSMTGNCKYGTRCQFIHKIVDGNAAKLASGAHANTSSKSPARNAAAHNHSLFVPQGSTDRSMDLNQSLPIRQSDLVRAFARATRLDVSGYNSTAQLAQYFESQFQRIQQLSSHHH

[8] = molecular target: T4, Zinc finger protein mex-5 (Caenorhabditis elegans, UniProt Q9XUB2); assay: potency of MEX-5 RNA-binding blockers – biochemical, C. elegans, fluorescence polarization, dose response (AID 1960)
T4 sequence (Q9XUB2 whole entry): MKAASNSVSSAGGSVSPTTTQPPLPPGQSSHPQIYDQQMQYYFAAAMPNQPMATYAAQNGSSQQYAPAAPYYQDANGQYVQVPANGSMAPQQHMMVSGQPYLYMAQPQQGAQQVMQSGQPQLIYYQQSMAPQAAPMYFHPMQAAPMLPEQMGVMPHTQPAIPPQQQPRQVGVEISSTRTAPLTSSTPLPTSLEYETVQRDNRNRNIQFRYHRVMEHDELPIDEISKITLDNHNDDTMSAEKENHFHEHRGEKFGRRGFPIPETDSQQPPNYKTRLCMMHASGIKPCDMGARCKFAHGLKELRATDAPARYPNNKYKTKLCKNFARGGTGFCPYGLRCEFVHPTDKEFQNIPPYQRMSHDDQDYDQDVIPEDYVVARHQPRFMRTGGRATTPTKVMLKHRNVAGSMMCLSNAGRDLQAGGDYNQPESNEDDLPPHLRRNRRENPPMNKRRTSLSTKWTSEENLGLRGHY

[9] = alpha-synuclein stem-loop luciferase translation blockers – H4 neuroglioma cells, luminescence, confirmation (AID 1988); format: functional, cell-based
[10] = Luminescence Cell-Based Dose Response HTS to Identify Inhibitors of 5'UTR Stem-Loop Driven Prion Protein mRNA Translation in H4 Neuroglioblastoma Cells. [Related pubchem assays: 1827 (Project Summary), 1813 (Primary HTS)]; format: functional
[11] = Luminescence Cell-Based Dose Retest to Confirm Inhibitors of Cancer Stem Cells. [Related pubchem assays (depositor defined):AID2717, AID2721]; format: functional; details: Homo sapiens
[12] = luciferase reporter signal suppression in cells – H4 neuroglioma cells, luminescence, dose response (AID 1990); format: functional, cell-based
[13] = molecular target: T5, Replicative DNA helicase DnaB (Mycobacterium tuberculosis, UniProt P9WMR3); assay: DnaB intein splicing inhibitors, dose response, biochemical, cell-free fluorescence (AID 449749); format: functional
T5 sequence (P9WMR3 whole entry): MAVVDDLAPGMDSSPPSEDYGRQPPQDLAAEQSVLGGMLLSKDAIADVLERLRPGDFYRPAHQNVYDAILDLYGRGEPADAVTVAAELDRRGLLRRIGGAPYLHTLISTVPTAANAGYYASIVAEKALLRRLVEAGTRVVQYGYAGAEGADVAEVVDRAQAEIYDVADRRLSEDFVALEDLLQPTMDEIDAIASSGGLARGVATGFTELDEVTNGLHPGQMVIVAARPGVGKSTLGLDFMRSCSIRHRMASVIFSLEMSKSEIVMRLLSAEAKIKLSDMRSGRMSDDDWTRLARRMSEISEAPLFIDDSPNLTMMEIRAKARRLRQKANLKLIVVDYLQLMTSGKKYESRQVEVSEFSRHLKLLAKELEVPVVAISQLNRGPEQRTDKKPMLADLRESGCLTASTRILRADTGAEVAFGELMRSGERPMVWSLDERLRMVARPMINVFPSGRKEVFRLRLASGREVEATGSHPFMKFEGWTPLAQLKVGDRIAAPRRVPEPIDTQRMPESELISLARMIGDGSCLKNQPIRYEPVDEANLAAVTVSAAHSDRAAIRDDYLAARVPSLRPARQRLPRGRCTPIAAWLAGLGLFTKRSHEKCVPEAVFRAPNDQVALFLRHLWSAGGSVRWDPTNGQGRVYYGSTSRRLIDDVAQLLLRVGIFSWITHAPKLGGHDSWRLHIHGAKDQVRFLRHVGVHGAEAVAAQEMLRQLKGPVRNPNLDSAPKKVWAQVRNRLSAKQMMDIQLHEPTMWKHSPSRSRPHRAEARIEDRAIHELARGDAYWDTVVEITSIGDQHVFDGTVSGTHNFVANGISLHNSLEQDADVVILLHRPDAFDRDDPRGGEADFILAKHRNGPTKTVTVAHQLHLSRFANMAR

Protein RecA = molecular target: T6, Protein RecA (Mycobacterium tuberculosis, UniProt P9WHJ3); assay: Fluorescence Cell-Free Homogeneous Dose Retest to Identify Inhibitors of RecA-Intein Splicing Activity. [Related pubchem assays (depositor defined):AID2097, AID2223, AID489010, AID492950]; format: functional
T6 sequence (P9WHJ3 whole entry): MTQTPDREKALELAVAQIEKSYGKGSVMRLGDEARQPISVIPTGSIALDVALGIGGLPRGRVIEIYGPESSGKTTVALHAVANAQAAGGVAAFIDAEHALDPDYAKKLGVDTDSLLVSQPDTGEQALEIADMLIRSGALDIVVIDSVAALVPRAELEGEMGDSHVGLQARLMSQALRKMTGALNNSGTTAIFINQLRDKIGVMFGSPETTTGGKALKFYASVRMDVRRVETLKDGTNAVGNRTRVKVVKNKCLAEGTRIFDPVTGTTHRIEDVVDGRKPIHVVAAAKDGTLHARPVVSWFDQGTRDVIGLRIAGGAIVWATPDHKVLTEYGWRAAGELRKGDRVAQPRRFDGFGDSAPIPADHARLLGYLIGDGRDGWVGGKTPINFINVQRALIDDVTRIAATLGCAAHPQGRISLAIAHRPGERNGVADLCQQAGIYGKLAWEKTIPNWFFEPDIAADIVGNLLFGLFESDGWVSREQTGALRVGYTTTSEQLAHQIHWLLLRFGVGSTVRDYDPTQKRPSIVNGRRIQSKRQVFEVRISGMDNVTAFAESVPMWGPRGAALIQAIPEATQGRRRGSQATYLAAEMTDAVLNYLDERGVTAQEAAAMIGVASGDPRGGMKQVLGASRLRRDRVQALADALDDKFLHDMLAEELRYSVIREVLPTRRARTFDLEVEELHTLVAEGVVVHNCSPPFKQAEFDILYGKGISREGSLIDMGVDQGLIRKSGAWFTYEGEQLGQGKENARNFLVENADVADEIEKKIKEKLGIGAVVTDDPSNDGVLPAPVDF

Chain of Luciferin 4-monooxygenase (P08659 whole entry): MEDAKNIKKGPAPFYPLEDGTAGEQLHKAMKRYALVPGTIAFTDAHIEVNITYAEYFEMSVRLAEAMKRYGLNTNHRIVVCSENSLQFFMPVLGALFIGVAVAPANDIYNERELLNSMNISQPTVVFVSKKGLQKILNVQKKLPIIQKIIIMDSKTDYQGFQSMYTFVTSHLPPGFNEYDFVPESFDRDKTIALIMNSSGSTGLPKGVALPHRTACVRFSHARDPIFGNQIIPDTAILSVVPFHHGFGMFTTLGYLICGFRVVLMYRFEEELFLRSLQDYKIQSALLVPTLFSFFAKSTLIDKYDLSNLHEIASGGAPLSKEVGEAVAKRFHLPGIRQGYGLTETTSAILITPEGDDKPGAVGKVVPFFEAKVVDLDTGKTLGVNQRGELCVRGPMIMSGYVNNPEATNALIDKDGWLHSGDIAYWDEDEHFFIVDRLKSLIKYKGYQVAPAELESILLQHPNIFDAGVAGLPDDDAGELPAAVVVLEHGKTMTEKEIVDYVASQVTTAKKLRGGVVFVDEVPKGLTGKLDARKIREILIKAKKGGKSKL
Chain of Cytochrome P450 2C9 (P11712 whole entry): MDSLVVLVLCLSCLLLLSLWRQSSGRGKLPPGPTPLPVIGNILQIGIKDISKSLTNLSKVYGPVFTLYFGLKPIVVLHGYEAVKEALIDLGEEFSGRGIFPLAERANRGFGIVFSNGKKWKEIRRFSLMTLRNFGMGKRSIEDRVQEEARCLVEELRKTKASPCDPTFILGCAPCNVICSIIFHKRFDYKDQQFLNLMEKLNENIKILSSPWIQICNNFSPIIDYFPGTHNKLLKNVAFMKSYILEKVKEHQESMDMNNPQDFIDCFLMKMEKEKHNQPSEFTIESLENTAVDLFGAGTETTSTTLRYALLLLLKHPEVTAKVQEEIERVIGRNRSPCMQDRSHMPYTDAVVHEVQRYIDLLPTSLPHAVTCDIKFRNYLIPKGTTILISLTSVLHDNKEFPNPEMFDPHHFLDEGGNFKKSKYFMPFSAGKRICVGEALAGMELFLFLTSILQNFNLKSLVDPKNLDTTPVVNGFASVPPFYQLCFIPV

CCN1CCCC(OC(=O)c2cc(-c3ccc(C)cc3)nc3ccccc23)C1 (stereo not given)
AC50 [1]: 8.59 µM (active)
EC50 [2]: 31.1 µM (active)
EC50 (H4): > 120 µM (not active)
EC50 [3]: > 120 µM (not active)

COc1ccc(NC(=O)c2cccs2)cc1
EC50 [4]: 17.4 µM (active)
EC50 [5]: 18.6 µM (active)

COc1ccc(/C=N/N=C(/N)N[N+](=O)[O-])c(OC)c1
EC50 [4]: > 112 µM (not active)
EC50 [5]: 2.39 µM (active)

CCCCOC(=O)CCc1c(C)nc(O)c(C#N)c1C
EC50 [4]: > 112 µM (not active)
AC50 (Cytochrome P450 2C9): 0.282 µM (inconclusive)
EC50 [5]: 6.36 µM (active)

O=C(Cc1nnc(O)c2ccccc12)OCC(=O)c1ccccc1
IC50 (H9c2): 20.5 µM (active)

C[C@H](NC(=O)c1[nH]cnc1C(=O)NCC(=O)OCc1ccccc1)c1ccccc1
IC50 (H9c2): > 79 µM (inactive)

N#CCCN(C(=O)COC(=O)CCc1c[nH]c2ccccc12)c1ccc(F)cc1
EC50 [4]: > 112 µM (not active)
EC50 [5]: 45.7 µM (active)

Cc1ccc(C(=O)N/C(=C\c2ccc(-c3cccc([N+](=O)[O-])c3)o2)C(=O)NCCCN(C)C)cc1
AC50 [1]: 24.7 µM (active)
IC50 [6]: > 20 µM (inactive)

O=C(NCCc1c[nH]c2ccccc12)C(=O)NCC(c1ccco1)N1CCN(c2ccccc2F)CC1 (stereo not given)
IC50 (H9c2): 12.2 µM (active)

Cc1ccc(/N=C/c2cc(Br)cc(Cl)c2O)cc1
IC50 (H9c2): 10.4 µM (active)
EC50 [7]: > 300 µM (not active)
EC50 [8]: > 300 µM (not active)

Cc1c(OCc2ccccc2)c(=O)ccn1Cc1ccccc1
EC50 [2]: 9.62 µM (active)
EC50 (H4): 8.26 µM (active)
EC50 [3]: 13.4 µM (active)

Cc1ccc(NC(=O)CC2C(=O)NC3CCCCC3N2C(=O)c2ccc(F)cc2)cc1C (stereo not given)
EC50 [4]: > 112 µM (not active)
EC50 [5]: > 112 µM (not active)

CCOCc1c(C(=O)NC2=C(C(=O)OCC)C(CC)=Nc3ccccc3N2)oc2ccccc12
IC50 (H9c2): > 79 µM (inactive)

Cc1nnc2ccc(-c3ccc(NC(=O)c4ccco4)cc3)nn12
EC50 [2]: 14.4 µM (active)
EC50 (H4): > 120 µM (not active)
EC50 [3]: 18.5 µM (active)

O=C(Cn1c2ccccc2c(=O)c2ccccc21)N/N=C/c1ccc(N2CCCC2)c([N+](=O)[O-])c1
EC50 [4]: > 112 µM (not active)
EC50 [9]: 5.08 µM (active)
EC50 [10]: 7.94 µM (active)
AC50 [11]: 0.483 µM (active)
EC50 [12]: 5.67 µM (active)
EC50 [5]: 27.4 µM (active)

Cc1ccc(-n2cnc3c(sc4nccc(N(C)C)c43)c2=O)cc1
EC50 [2]: 75.7 µM (active)
EC50 (H4): 15.6 µM (active)
EC50 [3]: > 120 µM (not active)

Cc1n[nH]c(S/C(C(=O)O)=C2/C(=O)Nc3ccccc32)n1
EC50 [4]: 15.9 µM (active)
EC50 [7]: > 300 µM (not active)
EC50 [5]: > 112 µM (not active)

c1ccc2c(c1)nc(Nc1ccc3c(c1)OCO3)c1nnnn12
IC50 (H9c2): 5.99 µM (active)

CC(=O)c1sc(N/N=C2\CC3CC2C(C)C3(C)C)nc1C (stereo not given)
EC50 [2]: 12.9 µM (active)
EC50 (H4): 11 µM (active)
EC50 [3]: 0.411 µM (active)

O=C(CSc1nc(O)c2ccccc2n1)N1CCN(S(=O)(=O)c2ccccc2)CC1
IC50 (H9c2): > 79 µM (inactive)

CCOC(=O)CSc1nnc(CSc2nc(O)c3c4c(sc3n2)CCC4)n1C
IC50 (H9c2): > 79 µM (inactive)

Cc1cc(Nc2cccc([N+](=O)[O-])c2)c2cccc(C)c2n1
EC50 [4]: > 112 µM (not active)
EC50 [5]: > 112 µM (not active)

Cc1ccc(-c2csc(NC(CO)c3nc4ccccc4n3CCOCCO)n2)cc1 (stereo not given)
EC50 [2]: > 120 µM (not active)
EC50 (H4): 17.3 µM (active)
EC50 [3]: > 120 µM (not active)

Cc1ccc(S(=O)(=O)N(C(=O)c2ccncc2)c2ccc(OC(=O)c3ccncc3)c3ccccc23)c(C)c1
AC50 [13]: 15.4 µM (active)
EC50 (Protein RecA): 10 µM (active)
